Reference: patent publication US11078197B2, “5-membered and bicyclic heterocyclic amides as inhibitors of rock” (BRISTOL-MYERS SQUIBB COMPANY, priority 2017, dated 2021)
Where two headings read alike, the source gives them in different places.

What was measured:
[1] = target: ROCK2 (Homo sapiens (Human), UniProt O75116); test: ROCK2 assay (peptide phosphorylation, LABCHIP 3000 Reader); assay type: biochemical; conditions: 5 μM ATP, 1.5 μM peptide substrate, dose-response
Method: After incubation, the reaction was terminated by the addition of EDTA and the phosphorylated and non-phosphorylated peptides separated using a LABCHIP®3000 Reader (Caliper Life Sciences). […] Compounds were tested in dose-response format, and the inhibition of kinase activity was calculated at each concentration of compound. […] Representative Examples were tested in the ROCK2 assay described above and found having ROCK2 inhibitory activity.

[2] = test system: Dahl salt-sensitive rats; conditions: congestive heart failure; cited from earlier work
[3] = test system: neointimal formation in rats; conditions: cited from earlier work
[4] = test system: spontaneously hypertensive rat, renal hypertensive rat and deoxycortisone acetate salt hypertensive rat models; conditions: cited from earlier work
[5] = test system: rat stroke model; conditions: cited from earlier work
[6] = test system: porcine model of IL-1 beta-induced coronary stenosis; conditions: long term treatment; cited from earlier work

Chain of ROCK2 (O75116 whole entry, species assumed): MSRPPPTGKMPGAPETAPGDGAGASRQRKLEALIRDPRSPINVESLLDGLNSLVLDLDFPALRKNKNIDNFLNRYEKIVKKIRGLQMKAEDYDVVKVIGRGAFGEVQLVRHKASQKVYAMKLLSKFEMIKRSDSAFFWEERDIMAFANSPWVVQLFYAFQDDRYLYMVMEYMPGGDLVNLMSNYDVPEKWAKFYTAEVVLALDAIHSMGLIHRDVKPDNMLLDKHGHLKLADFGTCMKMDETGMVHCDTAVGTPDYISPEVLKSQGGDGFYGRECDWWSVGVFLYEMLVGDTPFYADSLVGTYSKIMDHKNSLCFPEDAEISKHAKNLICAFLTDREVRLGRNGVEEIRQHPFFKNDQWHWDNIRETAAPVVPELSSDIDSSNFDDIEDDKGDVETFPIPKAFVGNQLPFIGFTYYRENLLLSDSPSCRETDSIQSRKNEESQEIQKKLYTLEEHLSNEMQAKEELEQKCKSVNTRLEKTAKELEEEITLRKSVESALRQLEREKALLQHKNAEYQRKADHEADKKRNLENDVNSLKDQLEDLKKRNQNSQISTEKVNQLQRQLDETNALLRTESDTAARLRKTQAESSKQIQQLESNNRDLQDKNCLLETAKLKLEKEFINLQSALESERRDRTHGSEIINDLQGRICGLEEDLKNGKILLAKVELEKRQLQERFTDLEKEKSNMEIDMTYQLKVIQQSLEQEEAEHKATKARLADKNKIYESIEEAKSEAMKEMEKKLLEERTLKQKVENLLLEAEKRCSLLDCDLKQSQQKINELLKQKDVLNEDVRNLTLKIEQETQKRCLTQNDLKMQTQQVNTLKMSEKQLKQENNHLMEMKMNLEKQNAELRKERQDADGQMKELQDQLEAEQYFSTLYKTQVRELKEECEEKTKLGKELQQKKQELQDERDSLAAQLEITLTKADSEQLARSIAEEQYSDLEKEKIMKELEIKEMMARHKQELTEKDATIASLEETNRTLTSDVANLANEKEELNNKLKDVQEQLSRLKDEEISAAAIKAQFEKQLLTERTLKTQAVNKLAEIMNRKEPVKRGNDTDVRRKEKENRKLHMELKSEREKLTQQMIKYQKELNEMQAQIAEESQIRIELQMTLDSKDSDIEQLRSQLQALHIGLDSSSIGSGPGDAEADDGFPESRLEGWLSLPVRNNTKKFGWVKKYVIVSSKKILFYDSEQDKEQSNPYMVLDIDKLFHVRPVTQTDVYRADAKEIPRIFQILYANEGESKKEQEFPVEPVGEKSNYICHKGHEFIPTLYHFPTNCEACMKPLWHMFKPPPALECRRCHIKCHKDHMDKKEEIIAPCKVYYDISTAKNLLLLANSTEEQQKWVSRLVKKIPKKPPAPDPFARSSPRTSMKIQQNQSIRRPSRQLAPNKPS

SMILES | IC50 [1] [nM] | also measured
Cn1ncc2cc(C(N)=O)c(O[C@H]3C[C@@]4(C[C@H](NC(=O)c5nn(CC(F)F)c6cc(OCC(C)(C)O)ccc56)C4)C3)nc21 (stereo partly shown) [Example 159, 1-(2,2-difluoroethyl)-6-(2-hydroxy-2-methylpropoxy)-N-[(4s)-6-({5-carbamoyl-1-methyl-1H-pyrazolo[3,4-b]pyridin-6-yl}oxy)spiro[3.3]heptan-2-yl]-1H-indazole-3-carboxamide] | 1.1 | 
Cn1ncc2cc(C(N)=O)c(O[C@H]3C[C@@]4(C[C@H](NC(=O)c5nn(CC(F)F)c6cc(OCC(C)(C)F)ccc56)C4)C3)nc21 (stereo partly shown) [Example 160, 1-(2,2-difluoroethyl)-6-(2-fluoro-2-methylpropoxy)-N-[(4s)-6-({5-carbamoyl-1-methyl-1H-pyrazolo[3,4-b]pyridin-6-yl}oxy)spiro[3.3]heptan-2-yl]-1H-indazole-3-carboxamide] | 1.6 | 
Cc1sc2cc(C(N)=O)c(O[C@H]3C[C@@]4(C[C@H](NC(=O)c5cnn(-c6ccc(F)cc6F)c5C)C4)C3)nc2c1C (stereo partly shown) [Example 161, 1-(2,4-difluorophenyl)-5-methyl-N-[(4s)-6-({6-carbamoyl-2,3-dimethylthieno[3,2-b]pyridin-5-yl}oxy)spiro[3.3]heptan-2-yl]-1H-pyrazole-4-carboxamide] | 223 | 
Cc1sc2cc(C(N)=O)c(O[C@H]3CC4(C[C@H](NC(=O)c5nnc(NCC(C)C)s5)C4)C3)nc2c1C (stereo partly shown) [Example 162, 5-[(2-methylpropyl)amino]-N-[(4s)-6-({6-carbamoyl-2,3-dimethylthieno[3,2-b]pyridin-5-yl}oxy)spiro[3.3]heptan-2-yl]-1,3,4-thiadiazole-2-carboxamide] | 162 | 
C[C@@H](N)[C@H]1CC[C@H](C(=O)Nc2ccncc2)CC1 [Example Y-27632, Y-27632] |  | ventricular hypertrophy, fibrosis and function [2]: improve ventricular hypertrophy, fibrosis and function; neointimal formation [3]: inhibited neointimal formation; blood pressure ([4]; control rats): only a minor effect on blood pressure; blood pressure ([4]; three rat models of hypertension): significantly decrease blood pressure
O=S(=O)(c1cccc2cnccc12)N1CCCNCC1 [fasudil] |  | infarct size and neurologic deficit [5]: reduce both the infarct size and neurologic deficit; coronary constrictive remodeling [6]: promote a regression of coronary constrictive remodeling; coronary stenosis [6]: progressively reduce coronary stenosis

More lines, in order of falling IC50 [1], values ahead:

IC50 [1] [nM] | SMILES | also measured
13.6 | Cn1ncc2cc(C(N)=O)c(O[C@H]3C[C@@]4(C[C@H](NC(=O)c5nnc(-c6ccc(F)cc6F)s5)C4)C3)nc21 (stereo partly shown) [Example 151, 5-(2,4-difluorophenyl)-N-[(4s)-6-({5-carbamoyl-1-methyl-1H-pyrazolo[3,4-b]pyridin-6-yl}oxy)spiro[3.3]heptan-2-yl]-1,3,4-thiadiazole-2-carboxamide] | 
10.9 | Cn1ncc2cc(C(N)=O)c(O[C@H]3C[C@@]4(C[C@H](NC(=O)c5cnc6c(cnn6CC(F)F)c5)C4)C3)nc21 (stereo partly shown) [Example 157, 1-methyl-6-{[(4s)-6-[1-(2,2-difluoroethyl)-1H-pyrazolo[3,4-b]pyridine-5-amido]spiro[3.3]heptan-2-yl]oxy}-1H-pyrazolo[3,4-b]pyridine-5-carboxamide] | 
6.3 | Cc1c(C(=O)N[C@H]2C[C@]3(C2)C[C@H](Oc2nc4c(cnn4C)cc2C(N)=O)C3)cnn1-c1ccc(C#N)cc1 (stereo partly shown) [Example 152, 1-(4-cyanophenyl)-5-methyl-N-[(4s)-6-({5-carbamoyl-1-methyl-1H-pyrazolo[3,4-b]pyridin-6-yl}oxy)spiro[3.3]heptan-2-yl]-1H-pyrazole-4-carboxamide] | 
4.6 | Cc1c(C(=O)N[C@H]2C[C@]3(C2)C[C@H](Oc2nc4c(cnn4C)cc2C(N)=O)C3)cnn1-c1ccc(-c2cnn(CC(F)F)c2)cc1 (stereo partly shown) [Example 158, 1-{4-[1-(2,2-difluoroethyl)-1H-pyrazol-4-yl]phenyl}-5-methyl-N-[(4s)-6-({5-carbamoyl-1-methyl-1H-pyrazolo[3,4-b]pyridin-6-yl}oxy)spiro[3.3]heptan-2-yl]-1H-pyrazole-4-carboxamide] | 
4.3 | Cn1ncc2cc(C(N)=O)c(O[C@H]3C[C@@]4(C[C@H](NC(=O)c5nnc(-c6cccc(S(C)(=O)=O)c6)s5)C4)C3)nc21 (stereo partly shown) [Example 156, 5-(3-methanesulfonylphenyl)-N-[(4s)-6-({5-carbamoyl-1-methyl-1H-pyrazolo[3,4-b]pyridin-6-yl}oxy)spiro[3.3]heptan-2-yl]-1,3,4-thiadiazole-2-carboxamide] | 
2.7 | Cn1ncc2cc(C(N)=O)c(O[C@H]3C[C@@]4(C[C@H](NC(=O)c5cc(-c6ccc(C#N)cc6)n(C(F)F)n5)C4)C3)nc21 (stereo partly shown) [Example 155, 5-(4-cyanophenyl)-1-(difluoromethyl)-N-[(4s)-6-({5-carbamoyl-1-methyl-1H-pyrazolo[3,4-b]pyridin-6-yl}oxy)spiro[3.3]heptan-2-yl]-1H-pyrazole-3-carboxamide] | 
2.3 | Cn1ncc2cc(C(N)=O)c(O[C@H]3C[C@@]4(C[C@H](NC(=O)c5cc(-c6ccc(S(C)(=O)=O)cc6)n(C(F)F)n5)C4)C3)nc21 (stereo partly shown) [Example 154, 1-(difluoromethyl)-5-(4-methanesulfonylphenyl)-N-[(4s)-6-({5-carbamoyl-1-methyl-1H-pyrazolo[3,4-b]pyridin-6-yl}oxy)spiro[3.3]heptan-2-yl]-1H-pyrazole-3-carboxamide] | 
0.8 | Cc1c(C(=O)N[C@H]2C[C@]3(C2)C[C@H](Oc2nc4c(cnn4C)cc2C(N)=O)C3)cnn1-c1ccc(-c2cnn(C)c2)cc1 (stereo partly shown) [Example 153, 5-methyl-1-[4-(1-methyl-1H-pyrazol-4-yl)phenyl]-N-[(4s)-6-({5-carbamoyl-1-methyl-1H-pyrazolo[3,4-b]pyridin-6-yl}oxy)spiro[3.3]heptan-2-yl]-1H-pyrazole-4-carboxamide] | 
